From article PMC7419507, “In vitro Cas9-assisted editing of modular polyketide synthase genes to produce desired natural product derivatives” (Nature Communications, 2020)
Several values for one entry are separate records, joined by “and”; a condition that tells them apart may be missing. Equal entries are not always repeated.

Assays:
[1] = Cytotoxicity assay (CellTiter-Glo, 72 h), Jurkat; format: cell-based; details: human, Jurkat cells (T lymphoma)
In short: (§1)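 Cells were seeded at 1000 cells/well and allowed 4 h at 37 °C, 5% CO2 before 2-fold compound dilutions in DMSO were added (0.5% final DMSO). After 72 h exposure, viability was read by CellTiter-Glo luminescence.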

[2] = test system: human ovarian adenocarcinoma SKOV-3 cells; assay: Cytotoxicity assay (CellTiter-Glo, 72 h), SKOV-3; format: cell-based; details: raw replicate data
In short: as §1

[3] = Cytotoxicity assay (CellTiter-Glo, 72 h), SKOV-3; format: cell-based, human; details: human
In short: as §1

COC1CC2CCC(C)C(O)(O2)C(=O)C(=O)N2CCCCC2C(=O)OC(C(C)CC2CCC(O)C(OC)C2)CCC(C)C=C(C)C(O)C(OC)C(=O)C(C)CC(C)C=CC=CC=C1C (stereo not shown) [Compound 16, 32-desketorapamycin]
viability at 72 h ([1]; 72 h, read-out: Plateau level of cell viability in the dose-response curve): ~25%
viability at 72 h, 9.53674e-05 uM ([1]; conc 9.53674e-5 uM, raw data (replicates)): 104%
viability at 72 h, 0.000190735 uM ([1]; conc 0.000190735 uM, raw data (replicates)): 86.9%
viability at 72 h, 0.00038147 uM ([1]; conc 0.00038147 uM, raw data (replicates)): 91.3%
viability at 72 h, 0.000762939 uM ([1]; conc 0.000762939 uM, raw data (replicates)): 67.7%
viability at 72 h, 0.00152588 uM ([1]; conc 0.00152588 uM, raw data (replicates)): 56.5%
viability at 72 h, 0.00305176 uM ([1]; conc 0.00305176 uM, raw data (replicates)): 40.9%
viability at 72 h, 0.00610352 uM ([1]; conc 0.00610352 uM, raw data (replicates)): 34.9%
viability at 72 h, 0.012207 uM ([1]; conc 0.012207 uM, raw data (replicates)): 28.9%
viability at 72 h, 0.0244141 uM ([1]; conc 0.0244141 uM, raw data (replicates)): 30.6%
viability at 72 h, 0.0488281 uM ([1]; conc 0.0488281 uM, raw data (replicates)): 25.7%
viability at 72 h, 0.0976562 uM ([1]; conc 0.0976562 uM, raw data (replicates)): 24%
viability at 72 h, 0.195312 uM ([1]; conc 0.195312 uM, raw data (replicates)): 24.3%
viability at 72 h, 0.390625 uM ([1]; conc 0.390625 uM, raw data (replicates)): 25.2%
viability at 72 h, 0.78125 uM ([1]; conc 0.78125 uM, raw data (replicates)): 22.1%
viability at 72 h, 1.5625 uM ([1]; conc 1.5625 uM, raw data (replicates)): 21.9%
viability at 72 h, 3.125 uM ([1]; conc 3.125 uM, raw data (replicates)): 20.3%
viability at 72 h, 6.25 uM ([1]; conc 6.25 uM, raw data (replicates)): 20.4%
viability at 72 h, 12.5 uM ([1]; conc 12.5 uM, raw data (replicates)): 11.9%
viability at 72 h, 25 uM ([1]; conc 25 uM, raw data (replicates)): 2%
viability at 72 h, 50 uM ([1]; conc 50 uM, raw data (replicates)): 0.248%
SKOV3 viability (%) ([2]; conc 9.53674e-5 uM): 103.5% and 99.3%
SKOV3 viability (%) ([2]; conc 0.000190735 uM): 92.3% and 95.8%
SKOV3 viability (%) ([2]; conc 0.00038147 uM): 95.4% and 93.0%
SKOV3 viability (%) ([2]; conc 0.000762939 uM): 86.5% and 80.1%
SKOV3 viability (%) ([2]; conc 0.00152588 uM): 73.2% and 83.0%
SKOV3 viability (%) ([2]; conc 0.00305176 uM): 64.2% and 71.1%
SKOV3 viability (%) ([2]; conc 0.00610352 uM): 65.5% and 65.6%
SKOV3 viability (%) ([2]; conc 0.012207 uM): 60.5% and 55.5%
SKOV3 viability (%) ([2]; conc 0.0244141 uM): 61.8% and 57.1%
SKOV3 viability (%) ([2]; conc 0.0488281 uM): 55.9% and 56.4%
SKOV3 viability (%) ([2]; conc 0.0976562 uM): 56.0% and 58.1%
SKOV3 viability (%) ([2]; conc 0.195312 uM): 52.7% and 56.6%
SKOV3 viability (%) ([2]; conc 0.390625 uM): 55.9% and 59.7%
SKOV3 viability (%) ([2]; conc 0.78125 uM): 59.7% and 56.2%
SKOV3 viability (%) ([2]; conc 1.5625 uM): 58.0% and 59.2%
SKOV3 viability (%) ([2]; conc 3.125 uM): 56.1% and 56.8%
SKOV3 viability (%) ([2]; conc 12.5 uM): 53.9% and 55.3%
SKOV3 viability (%) ([2]; conc 25 uM): 51.8% and 53.0%
SKOV3 viability (%) ([2]; conc 50 uM): 34.7% and 38.6%
viability at 72 h ([3]; SKOV-3 cells (ovarian adenocarcinoma), SKOV-3 cells, 72 h, read-out: Plateau level of cell viability in the dose-response curve): ~60%
viability at 72 h, 9.53674e-05 uM ([3]; SKOV-3 cells (ovarian adenocarcinoma), conc 9.53674e-5 uM, raw replicate data, read-out: SKOV3 viability (%)): 102%
viability at 72 h, 0.000190735 uM ([3]; SKOV-3 cells (ovarian adenocarcinoma), conc 0.000190735 uM, raw replicate data, read-out: SKOV3 viability (%)): 96.2%
viability at 72 h, 0.00038147 uM ([3]; SKOV-3 cells (ovarian adenocarcinoma), conc 0.00038147 uM, raw replicate data, read-out: SKOV3 viability (%)): 97.4%
viability at 72 h, 0.000762939 uM ([3]; SKOV-3 cells (ovarian adenocarcinoma), conc 0.000762939 uM, raw replicate data, read-out: SKOV3 viability (%)): 84.9%
viability at 72 h, 0.00152588 uM ([3]; SKOV-3 cells (ovarian adenocarcinoma), conc 0.00152588 uM, raw replicate data, read-out: SKOV3 viability (%)): 77.3%
viability at 72 h, 0.00305176 uM ([3]; SKOV-3 cells (ovarian adenocarcinoma), conc 0.00305176 uM, raw replicate data, read-out: SKOV3 viability (%)): 68.9%
viability at 72 h, 0.00610352 uM ([3]; SKOV-3 cells (ovarian adenocarcinoma), conc 0.00610352 uM, raw replicate data, read-out: SKOV3 viability (%)): 59%
viability at 72 h, 0.012207 uM ([3]; SKOV-3 cells (ovarian adenocarcinoma), conc 0.012207 uM, raw replicate data, read-out: SKOV3 viability (%)): 61.7%
viability at 72 h, 0.0244141 uM ([3]; SKOV-3 cells (ovarian adenocarcinoma), conc 0.0244141 uM, raw replicate data, read-out: SKOV3 viability (%)): 60%
viability at 72 h, 0.0488281 uM ([3]; SKOV-3 cells (ovarian adenocarcinoma), conc 0.0488281 uM, raw replicate data, read-out: SKOV3 viability (%)): 59.3%
viability at 72 h, 0.0976562 uM ([3]; SKOV-3 cells (ovarian adenocarcinoma), conc 0.0976562 uM, raw replicate data, read-out: SKOV3 viability (%)): 58.2%
viability at 72 h, 0.195312 uM ([3]; SKOV-3 cells (ovarian adenocarcinoma), conc 0.195312 uM, raw replicate data, read-out: SKOV3 viability (%)): 56.3%
viability at 72 h, 0.390625 uM ([3]; SKOV-3 cells (ovarian adenocarcinoma), conc 0.390625 uM, raw replicate data, read-out: SKOV3 viability (%)): 55.6%
viability at 72 h, 12.5 uM ([3]; SKOV-3 cells (ovarian adenocarcinoma), conc 12.5 uM, raw replicate data, read-out: SKOV3 viability (%)): 51.2%
viability at 72 h, 25 uM ([3]; SKOV-3 cells (ovarian adenocarcinoma), conc 25 uM, raw replicate data, read-out: SKOV3 viability (%)): 45.3%
viability at 72 h, 50 uM ([3]; SKOV-3 cells (ovarian adenocarcinoma), conc 50 uM, raw replicate data, read-out: SKOV3 viability (%)): 39.9%
viability at 72 h, 0.78125 uM ([3]; SKOV-3 ovarian adenocarcinoma cells, conc 0.78125 uM, raw replicate data, read-out: SKOV3 viability (%)): 57.3%
viability at 72 h, 1.5625 uM ([3]; SKOV-3 ovarian adenocarcinoma cells, conc 1.5625 uM, raw replicate data, read-out: SKOV3 viability (%)): 55%
viability at 72 h, 3.125 uM ([3]; SKOV-3 ovarian adenocarcinoma cells, conc 3.125 uM, raw replicate data, read-out: SKOV3 viability (%)): 57.8%
viability at 72 h, 6.25 uM ([3]; SKOV-3 ovarian adenocarcinoma cells, conc 6.25 uM, raw replicate data, read-out: SKOV3 viability (%)): 57%
